In patent US20220323406A1, “METHODS AND COMPOSITIONS FOR DIFFERENTIATING STEM CELLS” (Massachusetts Institute of Technology, priority 2019, published 2022):

Columns and labels:
[1] = test system: ENR+CD organoids (ISC to Paneth cell differentiation); experiment: Primary screen: basal (non-stimulated) lysozyme secretion LYZ.NS, 2.5-D 384-well ENR+CD organoid differentiation; assay type: cell-based, mouse; details: primary screen; for Z.LYZ.NS: standard z score
Text: (§1) High-throughput screening.

[2] = test system: ENR+CD organoids (ISC to Paneth cell differentiation); experiment: Primary screen: CCh-stimulated lysozyme secretion LYZ.S, 2.5-D 384-well ENR+CD organoid differentiation; assay type: cell-based, mouse; details: primary screen
Text: as §1

[3] = test system: ENR+CD organoids; experiment: Primary screen: ATP (CellTiter-Glo 3D, CTG) cell number/viability, 2.5-D 384-well ENR+CD organoids; details: primary screen; for Z.CTG: standard z score;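 on all read-outs here: compounds given at plating and again on day 3 over a 6-day differentiation from ENR+CV stem-cell-enriched precursors, ATP measured on day 6, plate median as control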
[4] = dose 0.08 uM, FC relative to plate median
[5] = dose 0.40 uM, FC relative to plate median
[6] = dose 2.00 uM, FC relative to plate median
[7] = dose 10.00 uM, FC relative to plate median
[8] = dose 0.08 uM, FC vs plate median
[9] = dose 0.40 uM, FC vs plate median
[10] = dose 2.00 uM, FC vs plate median
[11] = dose 10.00 uM, FC vs plate median

Row | Compound | Z.LYZ.NS ([1]; dose 0.08 uM) | Z.LYZ.NS ([1]; dose 0.40 uM) | Z.LYZ.NS ([1]; dose 2.00 uM) | Z.LYZ.NS ([1]; dose 10.00 uM) | Z.CTG ([3]; dose 0.08 uM) | Z.CTG ([3]; dose 0.40 uM) | Z.CTG ([3]; dose 2.00 uM) | Z.CTG ([3]; dose 10.00 uM) | Dose.FC.LYZ.NS [1, 8] [log2 fold change] | Dose.FC.LYZ.NS [1, 9] [log2 fold change] | Dose.FC.LYZ.NS [1, 10] [log2 fold change] | Dose.FC.LYZ.NS [1, 11] [log2 fold change] | Dose.FC.LYZ.S [2, 8] [log2 fold change] | Dose.FC.LYZ.S [2, 9] [log2 fold change] | Dose.FC.LYZ.S [2, 10] [log2 fold change] | Dose.FC.LYZ.S [2, 11] [log2 fold change] | Dose.FC.CTG [3, 8] [log2 fold change] | Dose.FC.CTG [3, 9] [log2 fold change] | Dose.FC.CTG [3, 10] [log2 fold change] | Dose.FC.CTG [3, 11] [log2 fold change] | other results
1 | CCOC(=O)c1ccc(N2NC(=O)/C(=C/c3ccc([N+](=O)[O-])o3)C2=O)cc1 [PYR-41] | 1.305 | 0.777 | 0.568 | 0.861 | 0.609 | 0.762 | 0.385 | 0.229 |  |  |  |  |  |  |  |  |  |  |  |  | Dose.FC.LYZ.NS [1, 4]: 0.150 log2 fold change; Dose.FC.LYZ.NS [1, 5]: 0.089 log2 fold change; Dose.FC.LYZ.NS [1, 6]: 0.065 log2 fold change; Dose.FC.LYZ.NS [1, 7]: 0.099 log2 fold change; Dose.FC.LYZ.S [2, 4]: 0.193 log2 fold change; Dose.FC.LYZ.S [2, 5]: 0.076 log2 fold change; Dose.FC.LYZ.S [2, 6]: 0.049 log2 fold change; Dose.FC.LYZ.S [2, 7]: 0.129 log2 fold change; Dose.FC.CTG [3, 4]: 0.255 log2 fold change; Dose.FC.CTG [3, 5]: 0.319 log2 fold change; Dose.FC.CTG [3, 6]: 0.161 log2 fold change; Dose.FC.CTG [3, 7]: 0.096 log2 fold change
2 | C1=N/C2=N/c3ccc(OCCN4CCCC4)c(c3)COC/C=C/COCc3cccc(c3)C(=C1)N2 [Pacritinib (SB1518)] | 0.795 | −0.299 | −1.908 | −2.391 | −0.014 | 0.236 | −0.560 | −3.047 | 0.091 | −0.034 | −0.219 | −0.275 | 0.066 | −0.032 | −0.304 | −0.419 | −0.006 | 0.099 | −0.235 | −1.276 | 
3 | CC(=O)c1c(C)c2cnc(Nc3ccc(N4CCNCC4)cn3)nc2n(C2CCCC2)c1=O.Cl [Palbociclib (PD-0332991) HCl] | −0.055 | −0.248 | −0.440 | −1.150 | 0.404 | −0.836 | −0.199 | −1.617 | −0.006 | −0.029 | −0.051 | −0.132 | 0.004 | −0.042 | −0.122 | −0.203 | 0.169 | −0.350 | −0.083 | −0.677 | 
4 | CC(=O)O[C@H]1C[C@@H]2CC[C@@H]3[C@H](CC[C@@]4(C)[C@H]3C[C@H]([N+]3(C)CCCCC3)[C@@H]4OC(C)=O)[C@@]2(C)C[C@@H]1[N+]1(C)CCCCC1.[Br-].[Br-] [Pancuronium dibromide] | 1.118 | 0.406 | 0.806 | 0.302 | 0.519 | 0.541 | −0.029 | 0.148 | 0.128 | 0.047 | 0.093 | 0.035 | 0.213 | 0.094 | 0.099 | 0.004 | 0.217 | 0.226 | −0.012 | 0.062 | 
5 | Cc1[nH]c2ccccc2c1CCNCc1ccc(/C=C/C(=O)NO)cc1 [Panobinostat (LBH589)] | 0.014 | −0.232 | −1.329 | −1.891 | 0.706 | 0.506 | −1.283 | −2.395 | 0.002 | −0.027 | −0.153 | −0.217 | −0.034 | −0.042 | −0.285 | −0.320 | 0.295 | 0.212 | −0.537 | −1.003 | 
6 | Oc1cc(O)cc(/C=C/c2ccc(O)c(O)c2)c1 [Piceatannol] | 0.698 | 0.375 | 0.221 | −0.184 |  |  |  |  | 0.080 | 0.043 | 0.025 | −0.021 | 0.094 | 0.045 | 0.016 | −0.104 | 0.232 | −0.090 | 0.074 | −0.071 | 
7 | COc1ccc(-c2nc3ccc(C4=NNC(=O)CC4C)cc3[nH]2)cc1 (centres unmarked) [Pimobendan] | 0.328 | 0.546 | 1.121 | −0.577 |  |  |  |  | 0.038 | 0.063 | 0.129 | −0.066 | 0.129 | 0.051 | 0.194 | −0.134 | −0.022 | 0.193 | 0.206 | 0.139 | 
8 | O=C(NNc1ccccc1)c1ccncc1 [PluriSIn #1 (NSC 14613)] | 0.720 | 0.039 | −0.929 | −2.475 | −0.349 | −0.226 | −1.035 | −2.038 | 0.083 | 0.004 | −0.107 | −0.284 | 0.057 | −0.007 | −0.133 | −0.372 | −0.146 | −0.095 | −0.433 | −0.853 | 
9 | Nc1cccc2c1C(=O)N(C1CCC(=O)NC1=O)C2=O (centres unmarked) [Pomalidomide] | −0.019 | −0.013 | −0.334 | −1.098 |  |  |  |  | −0.002 | −0.001 | −0.038 | −0.126 | −0.028 | −0.082 | −0.115 | −0.205 | 0.063 | 0.224 | −0.216 | −0.305 | 
10 | C#CCC(Cc1cnc2nc(N)nc(N)c2n1)c1ccc(C(=O)N[C@@H](CCC(=O)O)C(=O)O)cc1 (some centres unmarked) [Pralatrexate] | −1.173 | −1.413 | −1.345 | −1.292 |  |  |  |  |  |  |  |  |  |  |  |  |  |  |  |  | Dose.FC.LYZ.NS [1, 4]: −0.135 log2 fold change; Dose.FC.LYZ.NS [1, 5]: −0.162 log2 fold change; Dose.FC.LYZ.NS [1, 6]: −0.154 log2 fold change; Dose.FC.LYZ.NS [1, 7]: −0.148 log2 fold change; Dose.FC.LYZ.S [2, 4]: −0.183 log2 fold change; Dose.FC.LYZ.S [2, 5]: −0.176 log2 fold change; Dose.FC.LYZ.S [2, 6]: −0.173 log2 fold change; Dose.FC.LYZ.S [2, 7]: −0.215 log2 fold change; Dose.FC.CTG [3, 4]: −0.649 log2 fold change; Dose.FC.CTG [3, 5]: −0.853 log2 fold change; Dose.FC.CTG [3, 6]: −0.681 log2 fold change; Dose.FC.CTG [3, 7]: −0.922 log2 fold change
11 | CCCN[C@H]1CCc2nc(N)sc2C1 [Pramipexole] | 0.495 | 0.234 | 0.239 | 0.043 |  |  |  |  |  |  |  |  |  |  |  |  |  |  |  |  | Dose.FC.LYZ.NS [1, 4]: 0.057 log2 fold change; Dose.FC.LYZ.NS [1, 5]: 0.027 log2 fold change; Dose.FC.LYZ.NS [1, 6]: 0.027 log2 fold change; Dose.FC.LYZ.NS [1, 7]: 0.005 log2 fold change; Dose.FC.LYZ.S [2, 4]: 0.050 log2 fold change; Dose.FC.LYZ.S [2, 5]: 0.123 log2 fold change; Dose.FC.LYZ.S [2, 6]: 0.041 log2 fold change; Dose.FC.LYZ.S [2, 7]: 0.071 log2 fold change; Dose.FC.CTG [3, 4]: 0.109 log2 fold change; Dose.FC.CTG [3, 5]: 0.182 log2 fold change; Dose.FC.CTG [3, 6]: 0.026 log2 fold change; Dose.FC.CTG [3, 7]: 0.231 log2 fold change
